Values of other authors in EP4570255A1, “SPORICIDAL ANTIMICROBIAL COMPOSITIONS AND USES THEREOF” (Silva, Renata Moisés Iwamizu, priority 2022, dated 2024).
Structures can show the parent of a compound that is named as a salt.

solubility in water | Structure (SMILES)
about 1.8% | [H]/N=C(\N/C(=N/[H])NCCCCCCNC(=N)NC(=N)Nc1ccc(Cl)cc1)Nc1ccc(Cl)cc1 [diacetate salt, 1,1'-hexamethylene-bis-(5-(p-chlorophenyl)biguanide)]
about 70% | [H]/N=C(\N/C(=N/[H])NCCCCCCNC(=N)NC(=N)Nc1ccc(Cl)cc1)Nc1ccc(Cl)cc1 [digluconate salt, 1,1'-hexamethylene-bis-(5-(p-chlorophenyl)biguanide)]
